# Results reported in US20030109583A1 (priority 2001, published 2003).
# Read-outs that look alike come from different tables or passages of the source.
# Experiments:
# Proteus rettgeri = conditions: cited from earlier work
# Mycobacterium smegmatis = conditions: cited from earlier work
# [1] = test system: Escherichia coli ATCC 25922; assay: mouse septicemia model; assay type: in vivo, ICR male mice; conditions: mortality recorded for 7 days, E. coli ATCC 25922 mouse septicemia
# Description: (§1) Mice were inoculated intraperitoneally with 2×10^5 cfu/mouse in 0.5 ml of Brain-Heart Infusion broth supplemented with 5% mucin. The compound was tested at 40, 20, 10, 5 and 2.5 mg/kg orally (PO) or at 20, 10, 5 and 2.5 mg/kg intravenously (IV) at 1 and 5 hours after bacterial inoculation. Controls included vehicle control (0.9% NaCl, 10 ml/kg) and an antibiotic control with ampicillin. Mortality was recorded for 7 days, and an ED50 was determined by non-linear regression.
# Enterobacter aerogenes [2] = conditions: cited from earlier work
# Cryptococcus neoformans = conditions: cited from earlier work
# Shigella flexneri = conditions: cited from earlier work
# [3] = test system: Trichophyton mentagraphytes; conditions: cited from earlier work
# Proteus vulgaris = conditions: cited from earlier work
# Pseudomonas aeruginosa = conditions: cited from earlier work
# Staphylococcus aureus = conditions: cited from earlier work
# Herellea vaginicola = conditions: cited from earlier work
# Enterobacter sp. = conditions: cited from earlier work
# E. faecium = assay: in vitro MIC assay; assay type: cell-based; conditions: activity = MIC<128 μg/ml
# Description: (§2) The ability of negamycin or deoxynegamycin, or pharmaceutically acceptable salts, prodrugs or isomers thereof, to treat bacterial infection was measured by in vitro assay described below. The compounds were kept in DMSO at 10 mg/ml and diluted into the test medium for the assay.
# (§3) The strains used for assaying negamycin include the following: Acinetobacter baumanii, Citrobacter freundii, Enterobacter aerogenes, Haemophilus influenzae, Moraxella catarrhalis, Staphylococcus aureus MRSA, Staphylococcus aureus GISA, Staphylococcus epidermis, Streptococcus pneumoniae PenR, Streptococcus pneumoniae PenS, Streptococcus pyogenes, Helicobacter pylori and E. faecium. The strains used for assaying deoxynegamycin include the following: Haemophilus influenzae, Staphylococcus aureus MRSA, Staphylococcus aureus GISA, Staphylococcus epidermis, Streptococcus pneumoniae PenR, Streptococcus pneumoniae PenS, Streptococcus pyogenes and E. facium.
# (§4) (1) Liquid Medium, Nutrient Broth and Mueller-Hinton Broth with 50% Human Serum
# (§5) Compounds were suspended in a DMSO solution containing 10 mg/ml of compound. The appropriate amount of compound was added to a well of the first column of a 96-well microtiter plate containing 100 μl of Nutrient Broth (NB) or Mueller-Hinton Broth with 50% human serum (MHB+HS), for S. pneumoniae the NB medium was supplemented with 3 or 5% lysed horse blood. The rest of the wells in the row had 50 μl of the same medium in each well. After adding the compound to the first well and mixing thoroughly, 50 μl was taken out, and mixed to the second well of the row. This operation was repeated until the well of column 11 was reached and, after mixing, 50 μl were discarded. […] A concentration gradient of two-fold dilution was achieved by this method. A distinct compound was added to the first column well of the next row of the microtiter plate, and the procedure was repeated until all the rows are used. The plate was then ready for inoculation.
# (§6) Bacterial strains were inoculated from a frozen stock on Mueller-Hinton Agar (Difco) or Blood Agar for S. pneumoniae and grown at 35° C. overnight. Cells were suspended in sterile saline to 0.5 McFarland standard. The inoculum was diluted approximately 1:1000 in the appropriate medium to reach an inoculum size of 10^5 cfu/ml (NB, NB supplemented with 3 or 5% lysed horse blood for S. pneumoniae, or MHB+HS). The diluted cell suspension was used to inoculate the microtiter plate containing two-fold dilution of the test compound. Each well of the microtiter plate received 50 μl of the cell suspension. The final volume was 100 μl (50 μl from the inoculum and 50 μl of the medium containing the compound).
# (§7) The plates were incubated at 35° C. for 16 to 20 hours, the minimal inhibitory concentration (MIC) was recorded and was defined as the lowest concentration of compound that there is no visible growth.
# (§8) (2) Solid Medium, Mueller-Hinton Agar with 50% Human Serum
# (§9) Compounds were suspended in a DMSO solution containing 10 mg/ml of compound. The appropriate amount of compound was added to melted Mueller-Hinton Agar with 50% human serum (MHA+HS) at 50° C. The medium has been prepared by adding human serum to a melted Mueller-Hinton Agar (MHA) at two fold the concentration. MHA+HS has 50% human serum and normal strength of MHA. The appropriate concentration of compound was added to 4 ml of melted MHA+HS, and poured in a 6 cm diameter petri dish, and the agar was allowed to solidify at room temperature. A set of petri dishes, each dish containing half the concentration of compound of the previously poured dish, was made and used to assess the MIC in solid medium.
# (§10) Bacterial strains were inoculated from a frozen stock on Mueller-Hinton Agar (Difco) or Blood Agar for S. pneumoniae and grown at 35° C. overnight. Cells are suspended in sterile saline to 0.5 McFarland standard. The inoculum was diluted approximately 1:10 in sterile saline water to obtain a bacterial suspension at 10^7 cfu/ml. […]
# [4] = test system: Streptococcus pneumoniae PenR; assay: in vitro MIC assay; assay type: cell-based; conditions: activity = MIC<128 μg/ml
# Description: as §2, §3, §4, §5, §6, §7, §8, §9, §10
# [5] = test system: Streptococcus pneumoniae PenS; assay: in vitro MIC assay; assay type: cell-based; conditions: activity = MIC<128 μg/ml
# Description: as §2, §3, §4, §5, §6, §7, §8, §9, §10
# [6] = test system: Staphylococcus aureus MRSA; assay: in vitro MIC assay; assay type: cell-based; conditions: activity = MIC<128 μg/ml
# Description: as §2, §3, §4, §5, §6, §7, §8, §9, §10
# [7] = test system: Staphylococcus aureus GISA; assay: in vitro MIC assay; assay type: cell-based; conditions: activity = MIC<128 μg/ml
# Description: as §2, §3, §4, §5, §6, §7, §8, §9, §10
# Haemophilus influenzae = assay: in vitro MIC assay; assay type: cell-based; conditions: activity = MIC<128 μg/ml
# Description: as §2, §3, §4, §5, §6, §7, §8, §9, §10
# Staphylococcus epidermis = assay: in vitro MIC assay; assay type: cell-based; conditions: activity = MIC<128 μg/ml
# Description: as §2, §3, §4, §5, §6, §7, §8, §9, §10
# Streptococcus pyogenes = assay: in vitro MIC assay; assay type: cell-based; conditions: activity = MIC<128 μg/ml
# Description: as §2, §3, §4, §5, §6, §7, §8, §9, §10
# Trichophyton tonsurans = conditions: cited from earlier work
# Escherichia coli = conditions: cited from earlier work
# Proteius mirabilis = conditions: cited from earlier work
# Salmonella typhimurium = conditions: cited from earlier work
# Salmonella typhi = conditions: cited from earlier work
# Pseudomonas fluorescens = conditions: cited from earlier work
# Candida albicans = conditions: cited from earlier work
# Klebsiella pneumoniae = conditions: cited from earlier work
# Salmonella enteriditis = conditions: cited from earlier work
# Serratia marcescens = conditions: cited from earlier work
# Salmonella typhosa = conditions: cited from earlier work
# [8] = kept at 37° C. for one month, cited from earlier work
# Moraxella catarrhalis = assay: in vitro MIC assay; assay type: cell-based; conditions: activity = MIC<128 μg/ml
# Description: as §2, §3, §4, §5, §6, §7, §8, §9, §10
# Enterobacter aerogenes [9] = assay: in vitro MIC assay; assay type: cell-based; conditions: Klebsiella aerogenes, activity = MIC<128 μg/ml
# Description: as §2, §3, §4, §5, §6, §7, §8, §9, §10
# Helicobacter pylori = assay: in vitro MIC assay; assay type: cell-based; conditions: activity = MIC<128 μg/ml
# Description: as §2, §3, §4, §5, §6, §7, §8, §9, §10
# Acinetobacter baumanii = assay: in vitro MIC assay; assay type: cell-based; conditions: Acinetobacter baumannii, activity = MIC<128 μg/ml
# Description: as §2, §3, §4, §5, §6, §7, §8, §9, §10
# Citrobacter freundii = assay: in vitro MIC assay; assay type: cell-based; conditions: activity = MIC<128 μg/ml
# Description: as §2, §3, §4, §5, §6, §7, §8, §9, §10
# S. Aureus = assay: ED50 against S. Aureus; assay type: in vivo; conditions: Staphylococcus aureus, route not stated
# Description: as §1
# Shigella sonnei = conditions: cited from earlier work
# [10] = ATCC25922, intravenously (IV) at 1 and 5 hours after inoculation
# [11] = ATCC25922, orally (PO) at 1 and 5 hours after inoculation
SMILES,reported as effective against organism (Proteus rettgeri),reported as effective against organism (Mycobacterium smegmatis),"ED50 [1, 10] [mg/kg]",reported as effective against organism (Shigella flexneri),reported as effective against organism (Proteus vulgaris),reported as effective against organism (Pseudomonas aeruginosa),reported as effective against organism (Staphylococcus aureus),reported as effective against organism (Herellea vaginicola),reported as effective against organism (Enterobacter sp.),MIC (E. faecium),reported as effective against organism (Escherichia coli),reported as effective against organism (Salmonella typhimurium),reported as effective against organism (Salmonella typhi),reported as effective against organism (Pseudomonas fluorescens),reported as effective against organism (Klebsiella pneumoniae),reported as effective against organism (Salmonella enteriditis),reported as effective against organism (Serratia marcescens),"ED50 [1, 11] [mg/kg]",other results
"CN(CC(=O)O)NC(=O)C[C@H](N)CCCN [Deoxynegamycin, D-3,6-diaminiohexanoic acid-2-(carboxymethyl)-2-methylhyrazide]",effective,effective,4.8,effective,effective,effective,effective,effective,effective,inactive,effective,effective,effective,effective,effective,effective,effective,–,reported as effective against organism (Enterobacter aerogenes [2]): effective; reported as effective against organism (Cryptococcus neoformans): effective; reported as effective against organism [3]: effective; MIC [4]: exhibited activity; MIC [5]: exhibited activity; MIC [6]: exhibited activity; MIC [7]: exhibited activity; MIC (Haemophilus influenzae): exhibited activity; MIC (Staphylococcus epidermis): exhibited activity; MIC (Streptococcus pyogenes): exhibited activity; reported as effective against organism (Trichophyton tonsurans): effective; reported as effective against organism (Proteius mirabilis): effective; reported as effective against organism (Candida albicans): effective
"CN(CC(=O)O)NC(=O)C[C@H](N)C[C@@H](O)CN [Negamycin, [2-{(3R,5R)-3,6-diamino-5-hydroxyhexanoyl}-1-methylhydrazino]acetic acid]",effective,effective,4.1,effective,effective,effective,effective,effective,effective,inactive,effective,effective,effective,effective,effective,effective,effective,15.1,reported as effective against organism (Salmonella typhosa): effective; activity reduced to ([8]; in 0.02N HCl aqueous solution): 50%; activity reduced to ([8]; in aqueous solution): 63%; MIC (Moraxella catarrhalis): < 128 µg/mL; MIC (Enterobacter aerogenes [9]): < 128 µg/mL; MIC ([4]; read-out: MIC): < 128 µg/mL; MIC ([5]; read-out: MIC): < 128 µg/mL; MIC ([6]; read-out: MIC): < 128 µg/mL; MIC (Helicobacter pylori): < 128 µg/mL; MIC (Acinetobacter baumanii): < 128 µg/mL; MIC ([7]; read-out: MIC): < 128 µg/mL; MIC (Haemophilus influenzae; read-out: MIC): < 128 µg/mL; MIC (Staphylococcus epidermis; read-out: MIC): < 128 µg/mL; MIC (Streptococcus pyogenes; read-out: MIC): < 128 µg/mL; MIC (Citrobacter freundii): < 128 µg/mL; ED50 (S. Aureus): 16.8 mg/kg; reported as effective against organism (Shigella sonnei): effective
"CC1(C)S[C@@H]2[C@H](NC(=O)[C@H](N)c3ccccc3)C(=O)N2[C@H]1C(=O)O [Ampicillin, reference compound]",–,–,6.8,–,–,–,–,–,–,–,–,–,–,–,–,–,–,27.6,–
